Read-outs that look alike come from different tables or passages of the source.
Legend:
BRD4-BD12 (1-477) = BRD4-BD12 (1-477) (Homo sapiens (Human), UniProt O60885); test: Alphascreen binding assay BRD4-BD12; conditions: BRD4(1 2) H4; read-out: Biochemical activity (IC50 μM) BRD4(1 2) H4
How it was run: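 In this competition format, compounds displace a biotinylated tetra-acetyl H4 peptide from E. coli-expressed human BRD4 bromodomain constructs captured on nickel chelate beads. The reaction runs at pH 7.5 with 2 mM DTT and detergent for 1 h at room temperature before a 30 min bead step.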

bromodomain = test: at least one of the bromodomain cell assays of Example 57; assay type: cell-based; conditions: at least one of the bromodomain cell assays described in Example 57; read-out: IC50 in at least one of the bromodomain cell assays
MV-4-11 cells = test: Oncology cell growth assay MV-4-11 (CellTiter Glo); assay type: cell-based; conditions: Homo sapiens, MV4-11, 72 h, read-out: Cell activity (IC50 μM) MV-4-11 3d-Growth
How it was run: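 Growth read by CellTiter Glo luminescence after 72 h compound treatment of MLL-AF4-bearing MV-4-11 cells (3000/well). Titration: 8 points, 1:3 steps, maximum 10 μM, 0.2% DMSO final. Data normalized to DMSO wells, four-parameter fit gives pIC50.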

Structure (SMILES)	IC50 (BRD4-BD12 (1-477)) [µM]	IC50 (bromodomain) [nM]	IC50 (MV-4-11 cells; MV-4-11, 3d growth) [µM]	IC50 (MV-4-11 cells) [µM]
Cc1noc(C)c1-c1cnc2c(-c3ccc(S(=O)(=O)NC4CC4)cc3)cn([C@@H](C)c3ccccn3)c2c1 [P-0557, N-cyclopropyl-4-[6-(3,5-dimethylisoxazol-4-yl)-1-[(1S)-1-(2-pyridyl)ethyl]pyrrolo[3,2-b]pyridin-3-yl]benzenesulfonamide]	< 1	< 10000	< 1	–
Cc1ccc(-c2cn(CC3CCC(F)(F)CC3)c3cc(-c4c(C)noc4C)cnc23)cc1C(=O)O [P-0415, 5-[1-[(4,4-difluorocyclohexyl)methyl]-6-(3,5-dimethylisoxazol-4-yl)pyrrolo[3,2-b]pyridin-3-yl]-2-methyl-benzoic acid]	< 1	< 10000	–	< 1
Cc1noc(C)c1-c1cnc2c(I)cn(CC3(F)CCC(F)(F)CC3)c2c1 [P-0448, 4-[3-iodo-1-[(1,4,4-trifluorocyclohexyl)methyl]pyrrolo[3,2-b]pyridin-6-yl]-3,5-dimethyl-isoxazole]	< 1	< 10000	< 1	–
COc1cc(-c2cn(CC3CCCCC3)c3cc(-c4c(C)noc4C)cnc23)ccc1C(=O)O [P-0700, 4-[1-(cyclohexylmethyl)-6-(3,5-dimethylisoxazol-4-yl)pyrrolo[3,2-b]pyridin-3-yl]-2-methoxy-benzoic acid]	< 1	< 10000	< 1	–
Cc1noc(C)c1-c1cnc2c(-c3csc(C(=O)O)c3)cn(CC3(F)CCCCC3)c2c1 [P-0477, 4-[6-(3,5-dimethylisoxazol-4-yl)-1-[(1-fluorocyclohexyl)methyl]pyrrolo[3,2-b]pyridin-3-yl]thiophene-2-carboxylic acid]	< 1	< 10000	1 to 10	–
COc1ccc(-c2cn(CC3CCC(F)(F)CC3)c3cc(-c4c(C)noc4C)cnc23)cn1 [P-0390, 4-[1-[(4,4-difluorocyclohexyl)methyl]-3-(6-methoxy-3-pyridyl)pyrrolo[3,2-b]pyridin-6-yl]-3,5-dimethyl-isoxazole]	< 1	< 10000	–	< 1
[2H]C([2H])(C1CCC(F)(F)CC1)n1cc(-c2ccc(O)nc2)c2ncc(-c3c(C)noc3C)cc21 [P-0342, 5-[1-[dideuterio-(4,4-difluorocyclohexyl)methyl]-6-(3,5-dimethylisoxazol-4-yl)pyrrolo[3,2-b]pyridin-3-yl]pyridin-2-ol]	< 1	< 10000	–	< 1
COC(=O)c1ccc(-c2cn(Cc3ccccc3)c3cc(-c4c(C)noc4C)cnc23)cc1 [P-0919, methyl 4-[1-benzyl-6-(3,5-dimethylisoxazol-4-yl)pyrrolo[3,2-b]pyridin-3-yl]benzoate]	< 1	–	< 1	–
Cc1cccc(Cn2cc(I)c3ncc(-c4c(C)noc4C)cc32)n1 [P-0920, 4-[3-iodo-1-[(6-methyl-2-pyridyl)methyl]pyrrolo[3,2-b]pyridin-6-yl]-3,5-dimethyl-isoxazole]	< 1	–	< 1	–
Cc1noc(C)c1-c1cnc2c(I)cn([C@@H](c3ccccn3)C3CC3)c2c1 [P-0985, 4-[1-[(R)-cyclopropyl(2-pyridyl)methyl]-3-iodo-pyrrolo[3,2-b]pyridin-6-yl]-3,5-dimethyl-isoxazole]	< 1	–	< 1	–
CC[C@@H](c1ccccn1)n1cc(-c2ccc(C(=O)O)c(Cl)c2)c2ncc(-c3c(C)noc3C)cc21 [P-1028, 2-chloro-4-[6-(3,5-dimethylisoxazol-4-yl)-1-[(1S)-1-(2-pyridyl)propyl]pyrrolo[3,2-b]pyridin-3-yl]benzoic acid]	< 1	–	< 1	–
COC(=O)c1ccc(-c2cn(Cc3ccccc3F)c3cc(-c4c(C)noc4C)cnc23)cc1 [P-0925, methyl 4-[6-(3,5-dimethylisoxazol-4-yl)-1-[(2-fluorophenyl)methyl]pyrrolo[3,2-b]pyridin-3-yl]benzoate]	< 1	–	< 1	–
CC[C@H](c1ccccn1)n1cc(-c2ccc(C(=O)O)cc2)c2ncc(-c3c(C)noc3C)cc21 [P-0960, 4-[6-(3,5-dimethylisoxazol-4-yl)-1-[(1R)-1-(2-pyridyl)propyl]pyrrolo[3,2-b]pyridin-3-yl]benzoic acid]	< 1	–	< 1	–
Cc1noc(C)c1-c1cnc2c(-c3ccc(C4(C(=O)O)CC4)cc3)cn(C(c3ccccn3)C3CCCC3)c2c1 (centres unmarked) [P-1049, 1-[4-[1-[cyclopentyl(2-pyridyl)methyl]-6-(3,5-dimethylisoxazol-4-yl)pyrrolo[3,2-b]pyridin-3-yl]phenyl]cyclopropanecarboxylic acid]	< 1	–	< 1	–
Cc1noc(C)c1-c1cnc2c(Br)c[nH]c2c1 [P-0263, 4-(3-bromo-1H-pyrrolo[3,2-b]pyridin-6-yl)-3,5-dimethyl-isoxazole]	< 1	< 10000	–	–
Cc1noc(C)c1-c1cnc2c(-c3ccc(C4(C(=O)O)CC4)cc3)cn(CC3(C)CCOCC3)c2c1 [P-0943, 1-[4-[6-(3,5-dimethylisoxazol-4-yl)-1-[(4-methyltetrahydropyran-4-yl)methyl]pyrrolo[3,2-b]pyridin-3-yl]phenyl]cyclopropanecarboxylic acid]	< 1	–	1 to 10	–
Cc1noc(C)c1-c1ccc2c(-c3cnc(C4CC4)nc3)cn(C(c3ccccc3)c3ccccn3)c2c1 (centres unmarked) [P-1042, 4-[3-(2-cyclopropylpyrimidin-5-yl)-1-[phenyl(2-pyridyl)methyl]indol-6-yl]-3,5-dimethyl-isoxazole]	< 1	–	< 1	–
CC[C@H](c1ccccn1)n1cc(-c2ccc(CC(=O)O)cc2)c2ncc(-c3c(C)noc3C)cc21 [P-0962, 2-[4-[6-(3,5-dimethylisoxazol-4-yl)-1-[(1R)-1-(2-pyridyl)propyl]pyrrolo[3,2-b]pyridin-3-yl]phenyl]acetic acid]	< 1	–	< 1	–
Cc1noc(C)c1-c1ccc2c(-c3ccc(C(=O)O)c(F)c3)cn(C(c3ccccc3)c3ccccn3)c2c1 (centres unmarked) [P-1043, 4-[6-(3,5-dimethylisoxazol-4-yl)-1-[phenyl(2-pyridyl)methyl]indol-3-yl]-2-fluoro-benzoic acid]	< 1	–	< 1	–
CNC(=O)c1ccc(-c2cn(CC3(F)CCC(F)(F)CC3)c3cc(-c4c(C)noc4C)cnc23)cn1 [P-0380, 5-[6-(3,5-dimethylisoxazol-4-yl)-1-[(1,4,4-trifluorocyclohexyl)methyl]pyrrolo[3,2-b]pyridin-3-yl]-N-methyl-pyridine-2-carboxamide]	< 1	–	–	< 1
CC[C@@H](c1ccccn1)n1cc(-c2ccc(C3(C(=O)OC)CC3)cc2)c2ncc(-c3c(C)noc3C)cc21 [P-0968, methyl 1-[4-[6-(3,5-dimethylisoxazol-4-yl)-1-[(1S)-1-(2-pyridyl)propyl]pyrrolo[3,2-b]pyridin-3-yl]phenyl]cyclopropanecarboxylate]	< 1	–	< 1	–
COc1cc(-c2cn(Cc3ccccn3)c3cc(-c4c(C)noc4C)cnc23)ccc1C(=O)O [P-0953, 4-[6-(3,5-dimethylisoxazol-4-yl)-1-(2-pyridylmethyl)pyrrolo[3,2-b]pyridin-3-yl]-2-methoxy-benzoic acid]	< 1	–	< 1	–
Cc1noc(C)c1-c1cnc2c(-c3ccc(CC(=O)O)cc3)cn(C(c3ccccn3)C3CCCC3)c2c1 (centres unmarked) [P-0996, 2-[4-[1-[cyclopentyl(2-pyridyl)methyl]-6-(3,5-dimethylisoxazol-4-yl)pyrrolo[3,2-b]pyridin-3-yl]phenyl]acetic acid]	< 1	–	< 1	–
COC(=O)Cc1ccc(-c2cn(C(c3ccccn3)C3CCC3)c3cc(-c4c(C)noc4C)cnc23)cc1 (centres unmarked) [P-1013, methyl 2-[4-[1-[cyclobutyl(2-pyridyl)methyl]-6-(3,5-dimethylisoxazol-4-yl)pyrrolo[3,2-b]pyridin-3-yl]phenyl]acetate]	< 1	–	< 1	–
Cc1noc(C)c1-c1cnc2c(-c3ccc(C(=O)O)cc3)cn(Cc3ncccc3F)c2c1 [P-0949, 4-[6-(3,5-dimethylisoxazol-4-yl)-1-[(3-fluoro-2-pyridyl)methyl]pyrrolo[3,2-b]pyridin-3-yl]benzoic acid]	< 1	–	< 1	–
Cc1noc(C)c1-c1cnc2c(I)cn(C(c3ccccn3)C3CCCC3)c2c1 (centres unmarked) [P-0997, 4-[1-[cyclopentyl(2-pyridyl)methyl]-3-iodo-pyrrolo[3,2-b]pyridin-6-yl]-3,5-dimethyl-isoxazole]	< 1	–	< 1	–
CC[C@@H](c1ccccn1)n1cc(-c2ccc(C(=O)O)c(C)c2)c2ncc(-c3c(C)noc3C)cc21 [P-1026, 4-[6-(3,5-dimethylisoxazol-4-yl)-1-[(1S)-1-(2-pyridyl)propyl]pyrrolo[3,2-b]pyridin-3-yl]-2-methyl-benzoic acid]	< 1	–	< 1	–
Cc1noc(C)c1-c1cnc2c(-c3ccc(C(=O)O)c(F)c3)cn(C(c3ccccn3)C3CCCC3)c2c1 (centres unmarked) [P-1037, 4-[1-[cyclopentyl(2-pyridyl)methyl]-6-(3,5-dimethylisoxazol-4-yl)pyrrolo[3,2-b]pyridin-3-yl]-2-fluoro-benzoic acid]	< 1	–	< 1	–
Cc1noc(C)c1-c1cnc2c(-c3ccc(C#N)nc3)cn(C(c3ccccc3)c3ccccn3)c2c1 (centres unmarked) [P-0907, 5-[6-(3,5-dimethylisoxazol-4-yl)-1-[phenyl(2-pyridyl)methyl]pyrrolo[3,2-b]pyridin-3-yl]pyridine-2-carbonitrile]	< 1	–	< 1	–

— US10519177B2, “Heterocyclic compounds and uses thereof” (Plexxikon Inc., priority 2013, dated 2019)
